Literature values as cited in patent US20220134131A1, “ENERGY AUGMENTATION STRUCTURES FOR MEASURING AND THERAPEUTIC USES” (IMMUNOLIGHT, LLC, priority 2019, published 2022).

Test system: HT-29 cells

SMILES: OO [H2O2, hydrogen peroxide]
- effect of application on HT-29 cells: caused their death
